Measured values as given in article PMC2065875, “A Point Mutation in a Herpesvirus Polymerase Determines Neuropathogenicity” (PLoS Pathogens, 2007).

Legend:
[1] = biological target: T1, EHV-1 Pol D752 + pORF18 (viral DNA polymerase holoenzyme) (Equine herpesvirus type 1 (strain AB4P), UniProt P28858); assay: [3H]dTTP incorporation into poly(dA)-oligo(dT), in vitro translated Pol; type: biochemical; settings: poly(dA)-oligo(dT) template, 4 μl translated Pol plus 200 fmol pORF18 in 20 μl, 0.5% DMSO
T1 construct: gene 30; Pol (D752) from pTM1-ORF30 made by in vitro transcription-translation (TNT T7 coupled reticulocyte lysate, not purified); pORF18 purified, baculovirus-expressed; with DNA polymerase processivity factor
T1 sequence (P28958 whole entry): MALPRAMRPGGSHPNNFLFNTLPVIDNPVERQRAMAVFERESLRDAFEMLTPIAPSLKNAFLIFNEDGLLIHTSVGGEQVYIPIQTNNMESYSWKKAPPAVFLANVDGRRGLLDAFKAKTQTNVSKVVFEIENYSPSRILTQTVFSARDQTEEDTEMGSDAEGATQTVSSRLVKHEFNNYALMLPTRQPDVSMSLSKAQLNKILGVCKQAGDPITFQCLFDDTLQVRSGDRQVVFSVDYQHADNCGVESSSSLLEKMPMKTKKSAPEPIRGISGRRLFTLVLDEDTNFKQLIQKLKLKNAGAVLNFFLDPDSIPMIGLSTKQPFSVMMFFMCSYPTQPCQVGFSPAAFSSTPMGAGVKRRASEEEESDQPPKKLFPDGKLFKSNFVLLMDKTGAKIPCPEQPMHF
T1 sequence (P28858 whole entry): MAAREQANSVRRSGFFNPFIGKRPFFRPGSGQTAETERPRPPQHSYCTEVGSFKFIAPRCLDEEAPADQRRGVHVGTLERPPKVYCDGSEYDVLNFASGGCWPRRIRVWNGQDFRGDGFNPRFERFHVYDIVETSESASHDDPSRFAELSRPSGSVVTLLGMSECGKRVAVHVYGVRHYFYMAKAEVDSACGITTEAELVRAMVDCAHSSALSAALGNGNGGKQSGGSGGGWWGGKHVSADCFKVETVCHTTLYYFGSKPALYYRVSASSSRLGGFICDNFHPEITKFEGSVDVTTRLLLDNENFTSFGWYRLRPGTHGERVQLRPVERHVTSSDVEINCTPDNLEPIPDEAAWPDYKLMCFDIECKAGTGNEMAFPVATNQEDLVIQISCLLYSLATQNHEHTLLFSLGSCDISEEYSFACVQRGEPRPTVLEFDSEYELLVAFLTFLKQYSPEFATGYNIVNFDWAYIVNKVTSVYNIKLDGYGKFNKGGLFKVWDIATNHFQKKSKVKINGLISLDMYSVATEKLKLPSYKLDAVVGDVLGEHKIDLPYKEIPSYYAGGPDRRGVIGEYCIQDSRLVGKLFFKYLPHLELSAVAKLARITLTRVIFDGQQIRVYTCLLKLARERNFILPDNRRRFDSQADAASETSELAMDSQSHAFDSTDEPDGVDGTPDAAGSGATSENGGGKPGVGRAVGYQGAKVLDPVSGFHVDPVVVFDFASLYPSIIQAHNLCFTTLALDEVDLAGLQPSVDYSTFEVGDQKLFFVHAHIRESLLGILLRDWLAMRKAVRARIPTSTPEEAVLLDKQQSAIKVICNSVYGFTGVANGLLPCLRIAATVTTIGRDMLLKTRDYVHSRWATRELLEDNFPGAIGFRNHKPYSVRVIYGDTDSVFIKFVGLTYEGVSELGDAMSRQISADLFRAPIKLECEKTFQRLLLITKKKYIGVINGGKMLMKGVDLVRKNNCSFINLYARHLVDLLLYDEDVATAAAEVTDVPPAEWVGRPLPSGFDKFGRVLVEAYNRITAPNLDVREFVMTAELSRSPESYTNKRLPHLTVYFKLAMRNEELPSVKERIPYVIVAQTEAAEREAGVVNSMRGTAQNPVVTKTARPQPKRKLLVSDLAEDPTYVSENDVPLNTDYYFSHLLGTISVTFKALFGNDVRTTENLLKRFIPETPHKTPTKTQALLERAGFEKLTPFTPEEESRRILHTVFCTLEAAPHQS

[2] = biological target: T2, EHV-1 Pol D752 + pORF18 (viral DNA polymerase holoenzyme) (Equine herpesvirus type 1 (strain AB4P), UniProt P28858, D752N); settings: poly(dA)-oligo(dT) template, [3H]dTTP; 4 μl translated Pol plus 200 fmol pORF18 in 20 μl; 0.5% DMSO
T2 construct: gene 30
T2 sequence (P28858 whole entry, stated change not applied): as the sequence (P28858 whole entry) above
T2 sequence (P28958 whole entry, stated change not applied, further chain): as the sequence (P28958 whole entry) above

aphidicolin
IC50 [1]: 3.1 µM
IC50 [2]: 0.9 µM
